From PubChem BioAssay AID256 (DTP/NCI, 2004)
Toxic doses and inconclusive results are not listed. Rule for the calls: active = survival T/C of 150% or more; inactive = T/C below 125% in these data.

Test system: CD2F1 mice, L1210 leukemia ip, survival T/C
Experiment: NCI In Vivo Anticancer Drug Screen. Data for tumor model L1210 Leukemia (intraperitoneal) in CD2F1 (CDF1) mice
Conditions: higher = longer survival
How it was run: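 Transplantable tumor in mice; compound-treated vs vehicle-treated groups. Read-out = treated/control ratio of the measured endpoint.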

[1] = endpoint: mean survival time, dose: 50.0 mg/kg/injection, schedule: Q01DX009 (ip), vehicle: Klucel (hydroxypropylcellulose) (HPC)
[2] = endpoint: mean survival time, dose: 100.0 mg/kg/injection, schedule: Q01DX009 (ip), vehicle: Klucel (hydroxypropylcellulose) (HPC)
[3] = endpoint: mean survival time, dose: 200.0 mg/kg/injection, schedule: Q01DX009 (ip), vehicle: Klucel (hydroxypropylcellulose) (HPC)
[4] = endpoint: mean survival time, dose: 37.5 mg/kg/injection, schedule: Q01DX009 (ip), vehicle: saline
[5] = endpoint: mean survival time, dose: 75.0 mg/kg/injection, schedule: Q01DX009 (ip), vehicle: saline
[6] = endpoint: mean survival time, dose: 100.0 mg/kg/injection, schedule: Q01DX009 (ip), vehicle: saline with Tween-80
[7] = endpoint: mean survival time, dose: 100.0 mg/kg/injection, schedule: Q04DX003 (ip), vehicle: saline with Tween-80
[8] = endpoint: mean survival time, dose: 200.0 mg/kg/injection, schedule: Q01DX009 (ip), vehicle: saline with Tween-80
[9] = endpoint: mean survival time, dose: 200.0 mg/kg/injection, schedule: Q04DX003 (ip), vehicle: saline with Tween-80
[10] = endpoint: mean survival time, dose: 400.0 mg/kg/injection, schedule: Q01DX009 (ip), vehicle: saline with Tween-80
[11] = endpoint: mean survival time, dose: 400.0 mg/kg/injection, schedule: Q04DX003 (ip), vehicle: saline with Tween-80
[12] = endpoint: mean survival time, dose: 100.0 mg/kg/injection, schedule: Q04DX003 (ip), vehicle: saline
[13] = endpoint: mean survival time, dose: 200.0 mg/kg/injection, schedule: Q04DX003 (ip), vehicle: saline

Measured: T/C

CN=C([Se])NC
inactive: endpoint: mean survival time, dose: 3.13 mg/kg/injection, schedule: Q01DX005 (ip), vehicle: saline with Tween-80 108 % of control | endpoint: mean survival time, dose: 6.25 mg/kg/injection, schedule: Q01DX005 (ip), vehicle: saline with Tween-80 103 % of control | endpoint: mean survival time, dose: 12.5 mg/kg/injection, schedule: Q01DX005 (ip), vehicle: saline with Tween-80 116 % of control | endpoint: mean survival time, dose: 12.5 mg/kg/injection, schedule: Q04DX002 (ip), vehicle: saline with Tween-80 102 % of control | endpoint: mean survival time, dose: 25.0 mg/kg/injection, schedule: Q04DX002 (ip), vehicle: saline with Tween-80 104 % of control

COc1ccc(NC(=O)Oc2ccc(NC(C)=O)cc2)c(Cl)c1
inactive: [1] 100 % of control | [2] 100 % of control | [3] 107 % of control

CCCCCCCCCCCCCCCCOS(=O)(=O)O
inactive: [4] 98 % of control | [5] 97 % of control | endpoint: mean survival time, dose: 150.0 mg/kg/injection, schedule: Q01DX009 (ip), vehicle: saline 98 % of control

CCCCN1C(=O)C(=O)N(c2cc(C)c(C)cc2C)C1=O
inactive: endpoint: mean survival time, dose: 12.5 mg/kg/injection, schedule: Q01DX009 (ip), vehicle: saline with Tween-80 100 % of control | endpoint: mean survival time, dose: 25.0 mg/kg/injection, schedule: Q01DX009 (ip), vehicle: saline with Tween-80 96 % of control | endpoint: mean survival time, dose: 50.0 mg/kg/injection, schedule: Q01DX009 (ip), vehicle: saline with Tween-80 92 % of control | [6] 90 % of control

CN(C)c1ccc(/C=C(\C#N)c2ccc(Cl)cc2)c(Cl)c1
inactive: [6] 90 % of control | [7] 86 % of control | [8] 94 % of control | [9] 89 % of control | [10] 90 % of control | [11] 86 % of control

O=C(/C=C/c1ccc(Cl)cc1)c1ccccc1
inactive: [1] 94 % of control | [2] 102 % of control | [3] 105 % of control

COC(=O)c1c(CC#N)ncn1C1OC(COC(C)=O)C(OC(C)=O)C1OC(C)=O (configuration not stated)
inactive: endpoint: median survival time, dose: 8.25 mg/kg/injection, schedule: Q01DX005 (ip), vehicle: water 104 % of control | endpoint: median survival time, dose: 11.25 mg/kg/injection, schedule: Q01DX005 (ip), vehicle: water 100 % of control | endpoint: median survival time, dose: 16.5 mg/kg/injection, schedule: Q01DX005 (ip), vehicle: water 101 % of control | endpoint: median survival time, dose: 22.5 mg/kg/injection, schedule: Q01DX005 (ip), vehicle: water 98 % of control | endpoint: median survival time, dose: 33.0 mg/kg/injection, schedule: Q01DX005 (ip), vehicle: water 101 % of control | endpoint: median survival time, dose: 45.0 mg/kg/injection, schedule: Q01DX005 (ip), vehicle: water 101 % of control | endpoint: median survival time, dose: 66.0 mg/kg/injection, schedule: Q01DX005 (ip), vehicle: water 100 % of control | endpoint: median survival time, dose: 90.0 mg/kg/injection, schedule: Q01DX005 (ip), vehicle: water 100 % of control | endpoint: median survival time, dose: 132.0 mg/kg/injection, schedule: Q01DX005 (ip), vehicle: water 101 % of control | endpoint: median survival time, dose: 180.0 mg/kg/injection, schedule: Q01DX005 (ip), vehicle: water 100 % of control

Nc1nc(=O)n(C2OC(CO)C(O)C2F)cc1I (configuration not stated)
inactive: endpoint: median survival time, dose: 12.5 mg/kg/injection, schedule: Q01DX005 (ip), vehicle: saline 103 % of control | endpoint: median survival time, dose: 25.0 mg/kg/injection, schedule: Q01DX005 (ip), vehicle: saline 102 % of control | endpoint: median survival time, dose: 50.0 mg/kg/injection, schedule: Q01DX005 (ip), vehicle: saline 104 % of control | endpoint: median survival time, dose: 100.0 mg/kg/injection, schedule: Q01DX005 (ip), vehicle: saline 97 % of control | endpoint: median survival time, dose: 200.0 mg/kg/injection, schedule: Q01DX005 (ip), vehicle: saline 103 % of control

C=CCn1nnnc1N
inactive: [12] 101 % of control | [13] 103 % of control | endpoint: mean survival time, dose: 400.0 mg/kg/injection, schedule: Q04DX003 (ip), vehicle: saline 101 % of control

FC(F)(F)C(Cl)(c1ccc(Cl)cc1)c1ccc(Cl)cc1
inactive: endpoint: mean survival time, dose: 50.0 mg/kg/injection, schedule: Q04DX003 (sc), vehicle: olive oil, sesame oil, peanut oil 101 % of control | endpoint: mean survival time, dose: 100.0 mg/kg/injection, schedule: Q04DX003 (sc), vehicle: olive oil, sesame oil, peanut oil 108 % of control | endpoint: mean survival time, dose: 200.0 mg/kg/injection, schedule: Q04DX003 (sc), vehicle: olive oil, sesame oil, peanut oil 97 % of control | endpoint: mean survival time, dose: 400.0 mg/kg/injection, schedule: Q04DX003 (sc), vehicle: olive oil, sesame oil, peanut oil 101 % of control

CC[Si](CC)(CC)c1ccc(CCNCCS)s1
inactive: [4] 107 % of control | [5] 101 % of control

COc1cc(O)cc(OC)c1
inactive: endpoint: mean survival time, dose: 25.0 mg/kg/injection, schedule: Q04DX003 (ip), vehicle: saline 103 % of control | endpoint: mean survival time, dose: 50.0 mg/kg/injection, schedule: Q04DX003 (ip), vehicle: saline 102 % of control | [12] 100 % of control

O=C(O)c1nccc2c([N+](=O)[O-])cccc12
inactive: endpoint: mean survival time, dose: 100.0 mg/kg/injection, schedule: Q01DX009 (ip), vehicle: acetone 95 % of control | endpoint: mean survival time, dose: 200.0 mg/kg/injection, schedule: Q01DX009 (ip), vehicle: acetone 95 % of control | endpoint: mean survival time, dose: 400.0 mg/kg/injection, schedule: Q01DX009 (ip), vehicle: acetone 98 % of control

C[S+](C)CCC1NC(=O)NC1=O (configuration not stated)
inactive: [7] 107 % of control | [12] 98 % of control | [9] 102 % of control | [13] 102 % of control | [11] 93 % of control

CC1CN1C(=O)OCCOC(=O)N1CC1C (configuration not stated)
inactive: endpoint: mean survival time, dose: 200.0 mg/kg/injection, schedule: Q01DX Z (ip), vehicle: saline 120 % of control | endpoint: mean survival time, dose: 300.0 mg/kg/injection, schedule: Q01DX Z (ip), vehicle: saline 117 % of control | endpoint: mean survival time, dose: 450.0 mg/kg/injection, schedule: Q01DX Z (ip), vehicle: saline 117 % of control

Clc1ccc(OCCOc2ccc(Cl)cc2Cl)c(Cl)c1
inactive: [7] 95 % of control | [9] 106 % of control | [11] 100 % of control

c1ccc2c(c1)ccc1c(C3CO3)cccc12 (configuration not stated)
inactive: endpoint: mean survival time, dose: 100.0 mg/kg/injection, schedule: Q01DX005 (ip), vehicle: saline with Tween-80 103 % of control | [6] 93 % of control | endpoint: mean survival time, dose: 200.0 mg/kg/injection, schedule: Q01DX005 (ip), vehicle: saline with Tween-80 106 % of control | [8] 101 % of control | endpoint: mean survival time, dose: 400.0 mg/kg/injection, schedule: Q01DX005 (ip), vehicle: saline with Tween-80 95 % of control | [10] 101 % of control

O=[N+]([O-])c1ccc(/C=C/C2(CCl)OCCO2)cc1
inactive: endpoint: mean survival time, dose: 100.0 mg/kg/injection, schedule: Q01DX001 (ip), vehicle: Klucel (hydroxypropylcellulose) (HPC) 96 % of control | endpoint: mean survival time, dose: 200.0 mg/kg/injection, schedule: Q01DX001 (ip), vehicle: Klucel (hydroxypropylcellulose) (HPC) 92 % of control | endpoint: mean survival time, dose: 400.0 mg/kg/injection, schedule: Q01DX001 (ip), vehicle: Klucel (hydroxypropylcellulose) (HPC) 100 % of control

Cc1nc2scc(C)c2c(=S)[nH]1
inactive: endpoint: mean survival time, dose: 100.0 mg/kg/injection, schedule: Q01DX001 (ip), vehicle: saline with Tween-80 96 % of control | endpoint: mean survival time, dose: 200.0 mg/kg/injection, schedule: Q01DX001 (ip), vehicle: saline with Tween-80 97 % of control | endpoint: mean survival time, dose: 400.0 mg/kg/injection, schedule: Q01DX001 (ip), vehicle: saline with Tween-80 88 % of control
